Laboratory results reported in patent US20070197585A1, “Use of cysteinyl leukotriene 2 receptor antagonists” (priority 2004, published 2007).

How the values were obtained:
[1] = target: T1, CysLT1 receptor (Homo sapiens, UniProt Q9Y271); assay: LTD4-induced calcium flux (calcium mobilization, FLIPR) in CysLT1 receptor transfected HEK293T cells; type: cell-based; details: antagonist dose-response curve, read-out: IC50 of blocking LTD4-induced calcium flux, CysLT1 receptor
T1 construct: expressed in transfected cells; host or cells: HEK293T
T1 sequence (Q9Y271 1-337): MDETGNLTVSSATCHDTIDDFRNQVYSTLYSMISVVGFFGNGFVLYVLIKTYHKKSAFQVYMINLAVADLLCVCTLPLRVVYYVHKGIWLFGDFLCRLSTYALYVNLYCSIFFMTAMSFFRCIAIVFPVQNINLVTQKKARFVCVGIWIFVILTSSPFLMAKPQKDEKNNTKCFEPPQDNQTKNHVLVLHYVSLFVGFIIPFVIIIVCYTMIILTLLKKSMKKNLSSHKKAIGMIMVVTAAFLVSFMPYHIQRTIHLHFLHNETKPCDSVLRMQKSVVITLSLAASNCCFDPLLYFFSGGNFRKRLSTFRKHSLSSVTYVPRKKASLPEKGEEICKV
Experimental: (§1) Compounds may be screened for effects on LTD4 induced calcium mobilization in cells transfected with CysLT2 receptor, according to the following calcium mobilization assay.
(§2) Human embryonic kidney (HEK293T) cells transiently transfected with the CysLT2 receptor using LipofectAMINE™2000 reagent (Life Technologies) or Chinese hamster ovary (CHO-NFAT) cells stably transfected with the CysLT2 type receptor are plated into Poly-D-Lysine treated black-wall microplates (Biocoat™) at 5×10^4 cells per well. Cells are maintained for approximately 24 hours at 37° C. and 5% CO2. After 24 hours, cells are loaded with Fluo4 calcium indicator dye (Molecular Probes) in the presence of 2.5 mM probenecid for one hour. After washing, the cells are treated with agonist, (10 nM LTD4, BioMol), and maximum fluorescence measured in a Molecular Devices Fluorometric Imaging Plate Reader (FLIPR). Compounds screened for antagonism are added five minutes prior to addition of agonist.
Compounds of interest from the CysLT2 receptor screen may also be assayed in a CysLT1 receptor counter screen. Compounds of interest may be assayed using the same protocol described above in cells transfected with the CysLT1 receptor.
(§3) Agonist and Standard Antagonist Functional Characterization on Human CysLT1 and CysLT2 Receptors

[2] = target: T2, CysLT2 receptor (Homo sapiens, UniProt Q9NS75); assay: LTD4-induced calcium flux (calcium mobilization, FLIPR) in CysLT2 receptor-transfected cells; type: cell-based; details: antagonist dose-response curve, read-out: IC50 of blocking LTD4-induced calcium flux, CysLT2 receptor
T2 construct: expressed in transfected cells
T2 sequence (Q9NS75 1-346): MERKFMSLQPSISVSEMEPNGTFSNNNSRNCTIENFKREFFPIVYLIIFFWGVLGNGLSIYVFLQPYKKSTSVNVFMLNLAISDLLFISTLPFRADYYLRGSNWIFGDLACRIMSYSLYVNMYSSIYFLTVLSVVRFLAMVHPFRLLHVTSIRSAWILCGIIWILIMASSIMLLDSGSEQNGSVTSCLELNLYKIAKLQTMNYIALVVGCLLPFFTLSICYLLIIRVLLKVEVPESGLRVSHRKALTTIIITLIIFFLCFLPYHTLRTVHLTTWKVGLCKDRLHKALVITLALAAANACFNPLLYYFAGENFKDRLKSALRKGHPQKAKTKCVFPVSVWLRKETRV
Experimental: as §1, §2, §3

melting point: 88 to 91 °C
IC50 [1]: < 10 µM
IC50 [2]: < 10 µM
Compound: CCCCCCCCCc1ccc(C(Sc2cccc(NC(=O)CC(=O)O)c2)C(=O)CCCC(=O)O)cc1 (stereo not drawn) [Compound (I), 6-({3-[(carboxyacetyl)amino]phenyl}thio)-6-(4-nonylphenyl)-5-oxohexanoic acid]
